Key:
[1] = test system: CYPSE (Flatsedge); assay: Preemergence weed control under flooded paddy conditions; assay type: in vivo, Cyperus serotinus; details: rated 3-4 weeks after treatment
Summary of the method: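 Using flooded silt loam (water 1.5 to 3 cm deep), seeds sown in the top 0.5 cm were exposed preemergence to compound pipetted into the flood at about 0.0313 to 0.500 kg/ha. Effects were scored 0-9 by eye three to four weeks later.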

[2] = test system: AMBEL (Ragweed, Common); assay: Postemergence herbicidal evaluation; assay type: in vivo, Ambrosia artemisifolia; details: postemergence
Summary of the method: (§1)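 Compound is applied as a foliar spray to seedlings about two weeks old, formulated in equal parts acetone and water with 0.5% TWEEN 20 and delivered at 40 psi to give about 0.0156–0.500 kg per hectare. Injury is rated visually 0–9 after four to five weeks.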

[3] = test system: AMBEL (Ragweed, Common); assay: Preemergence herbicidal evaluation; assay type: in vivo, Ambrosia artemisifolia; details: rated 4-5 weeks after treatment, rating scale 0-9
Summary of the method: (§2)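 Seeds were mixed with potting soil and planted on about one inch of soil, then sprayed with test compound in aqueous acetone at about 0.0156 to 0.500 kg per hectare. Plants grew under standard greenhouse care and were visually rated 0-9 against untreated controls 4-5 weeks post-treatment.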

[4] = test system: ORYSAT (Rice, Tebonnet); assay: Postemergence herbicidal evaluation; assay type: in vivo, Oryza sativa, (L.) Tebonnet; details: postemergence
Summary of the method: as §1

[5] = test system: ZEAMX (Corn, Field); assay: Postemergence herbicidal evaluation; assay type: in vivo, Zea mays; details: postemergence
Summary of the method: as §1

[6] = test system: CHEAL (Lambsquarters, Common); assay: Postemergence herbicidal evaluation; assay type: in vivo, Chenopodium album; details: postemergence
Summary of the method: as §1

[7] = test system: GLXMAW (Soybean, Williams); assay: Postemergence herbicidal evaluation; assay type: in vivo, Glycine max, (L.) Merr. cv Williams; details: postemergence
Summary of the method: as §1

[8] = test system: GALAP (Galium); assay: Preemergence herbicidal evaluation; assay type: in vivo, Galium aparine; details: rated 4-5 weeks after treatment, rating scale 0-9
Summary of the method: as §2

[9] = test system: CHEAL (Lambsquarters, Common); assay: Preemergence herbicidal evaluation; assay type: in vivo, Chenopodium album; details: rated 4-5 weeks after treatment, rating scale 0-9
Summary of the method: as §2

[10] = test system: ECHCG (Barnyardgrass); assay: Postemergence herbicidal evaluation; assay type: in vivo, Echinochloa crus-galli; details: postemergence
Summary of the method: as §1

[11] = test system: CASOB (Sicklepod); assay: Preemergence herbicidal evaluation; assay type: in vivo, Cassia obtusifolia; details: rated 4-5 weeks after treatment, rating scale 0-9
Summary of the method: as §2

[12] = test system: ABUTH (Velvetleaf); assay: Postemergence herbicidal evaluation; assay type: in vivo, Abutilon theophrasti; details: postemergence
Summary of the method: as §1

SMILES: Cn1c(C(F)(F)F)cc(=O)n(-c2cc(N=C3SCC(=O)N3Cc3ccc(F)cc3)c(Cl)cc2F)c1=O [Compound 151, 3-{4-Chloro-2-fluoro-5-{[3-(p-fluorobenzyl)-4-oxo-2-thiazolidinylidene]amino}phenyl}-1-methyl-6-(trifluoromethyl)-2,4(1H,3H)-pyrimidinedione]
- herbicidal effect rating, CYPSE ([1]; 0.0625 kg/ha): 7.0
- herbicidal effect rating, CYPSE ([1]; 0.2500 kg/ha): 7.0
- Herbicidal rating AMBEL ([2]; rate 0.0156 kg/ha): 7.0
- Herbicidal rating AMBEL ([2]; rate 0.0313 kg/ha): 7.0
- Herbicidal rating AMBEL ([2]; rate 0.0625 kg/ha): 9.0
- Preemergence herbicidal rating AMBEL ([3]; rate 0.0156 kg/ha): 1.0
- Preemergence herbicidal rating AMBEL ([3]; rate 0.0313 kg/ha): 7.0
- Preemergence herbicidal rating AMBEL ([3]; rate 0.0625 kg/ha): 9.0
- Preemergence herbicidal rating AMBEL ([3]; rate 0.1250 kg/ha): 9.0
- Preemergence herbicidal rating AMBEL ([3]; rate 0.2500 kg/ha): 9.0
- Herbicidal rating ORYSAT ([4]; rate 0.0156 kg/ha): 2.0
- Herbicidal rating ORYSAT ([4]; rate 0.0313 kg/ha): 2.5
- Herbicidal rating ORYSAT ([4]; rate 0.0625 kg/ha): 3.5
- Herbicidal rating ZEAMX ([5]; rate 0.0156 kg/ha): 4.0
- Herbicidal rating ZEAMX ([5]; rate 0.0313 kg/ha): 4.5
- Herbicidal rating ZEAMX ([5]; rate 0.0625 kg/ha): 5.0
- Herbicidal rating CHEAL ([6]; rate 0.0156 kg/ha): 9.0
- Herbicidal rating CHEAL ([6]; rate 0.0313 kg/ha): 7.0
- Herbicidal rating CHEAL ([6]; rate 0.0625 kg/ha): 9.0
- Herbicidal rating GLXMAW ([7]; rate 0.0156 kg/ha): 4.0
- Herbicidal rating GLXMAW ([7]; rate 0.0313 kg/ha): 4.5
- Herbicidal rating GLXMAW ([7]; rate 0.0625 kg/ha): 5.5
- Preemergence herbicidal rating GALAP ([8]; rate 0.0156 kg/ha): 2.0
- Preemergence herbicidal rating GALAP ([8]; rate 0.0313 kg/ha): 4.0
- Preemergence herbicidal rating GALAP ([8]; rate 0.0625 kg/ha): 4.0
- Preemergence herbicidal rating GALAP ([8]; rate 0.1250 kg/ha): 9.0
- Preemergence herbicidal rating GALAP ([8]; rate 0.2500 kg/ha): 9.0
- Preemergence herbicidal rating CHEAL ([9]; rate 0.0156 kg/ha): 9.0
- Preemergence herbicidal rating CHEAL ([9]; rate 0.0313 kg/ha): 9.0
- Preemergence herbicidal rating CHEAL ([9]; rate 0.0625 kg/ha): 9.0
- Preemergence herbicidal rating CHEAL ([9]; rate 0.1250 kg/ha): 9.0
- Preemergence herbicidal rating CHEAL ([9]; rate 0.2500 kg/ha): 9.0
- Herbicidal rating ECHCG ([10]; rate 0.0156 kg/ha): 3.0
- Herbicidal rating ECHCG ([10]; rate 0.0313 kg/ha): 3.0
- Herbicidal rating ECHCG ([10]; rate 0.0625 kg/ha): 4.0
- Preemergence herbicidal rating CASOB ([11]; rate 0.0156 kg/ha): 0.0
- Preemergence herbicidal rating CASOB ([11]; rate 0.0313 kg/ha): 2.0
- Preemergence herbicidal rating CASOB ([11]; rate 0.0625 kg/ha): 2.0
- Preemergence herbicidal rating CASOB ([11]; rate 0.1250 kg/ha): 9.0
- Preemergence herbicidal rating CASOB ([11]; rate 0.2500 kg/ha): 9.0
- Herbicidal rating ABUTH ([12]; rate 0.0156 kg/ha): 9.0
- Herbicidal rating ABUTH ([12]; rate 0.0313 kg/ha): 9.0
- Herbicidal rating ABUTH ([12]; rate 0.0625 kg/ha): 9.0

SMILES: Cn1c(C(F)(F)F)cc(=O)n(-c2cc(N=C3SCC(=O)N3Cc3cccc(Cl)c3)c(Cl)cc2F)c1=O [Compound 136, 3-{4-Chloro-5-{[3-(m-chlorobenzyl)-4-oxo-2-thiazolidinylidene]amino}-2-fluorophenyl}-1-methyl-6-(trifluoromethyl)-2,4(1H,3H)-pyrimidinedione]
- herbicidal effect rating, CYPSE ([1]; 0.0313 kg/ha): 0.0
- herbicidal effect rating, CYPSE ([1]; 0.0625 kg/ha): 0.0
- herbicidal effect rating, CYPSE ([1]; 0.1250 kg/ha): 0.0
- herbicidal effect rating, CYPSE ([1]; 0.2500 kg/ha): 0.0
- Herbicidal rating AMBEL ([2]; rate 0.0156 kg/ha): 9.0
- Herbicidal rating AMBEL ([2]; rate 0.0313 kg/ha): 9.0
- Herbicidal rating AMBEL ([2]; rate 0.0625 kg/ha): 9.0
- Preemergence herbicidal rating AMBEL ([3]; rate 0.0156 kg/ha): 0.0
- Preemergence herbicidal rating AMBEL ([3]; rate 0.0313 kg/ha): 0.0
- Preemergence herbicidal rating AMBEL ([3]; rate 0.0625 kg/ha): 1.0
- Preemergence herbicidal rating AMBEL ([3]; rate 0.1250 kg/ha): 2.0
- Preemergence herbicidal rating AMBEL ([3]; rate 0.2500 kg/ha): 5.0
- Herbicidal rating ORYSAT ([4]; rate 0.0156 kg/ha): 2.5
- Herbicidal rating ORYSAT ([4]; rate 0.0313 kg/ha): 3.0
- Herbicidal rating ORYSAT ([4]; rate 0.0625 kg/ha): 2.5
- Herbicidal rating ZEAMX ([5]; rate 0.0156 kg/ha): 4.0
- Herbicidal rating ZEAMX ([5]; rate 0.0313 kg/ha): 4.0
- Herbicidal rating ZEAMX ([5]; rate 0.0625 kg/ha): 4.0
- Herbicidal rating CHEAL ([6]; rate 0.0156 kg/ha): 9.0
- Herbicidal rating CHEAL ([6]; rate 0.0313 kg/ha): 9.0
- Herbicidal rating CHEAL ([6]; rate 0.0625 kg/ha): 9.0
- Herbicidal rating GLXMAW ([7]; rate 0.0156 kg/ha): 4.5
- Herbicidal rating GLXMAW ([7]; rate 0.0313 kg/ha): 5.5
- Herbicidal rating GLXMAW ([7]; rate 0.0625 kg/ha): 5.5
- Preemergence herbicidal rating GALAP ([8]; rate 0.0156 kg/ha): 0.0
- Preemergence herbicidal rating GALAP ([8]; rate 0.0313 kg/ha): 0.0
- Preemergence herbicidal rating GALAP ([8]; rate 0.0625 kg/ha): 1.0
- Preemergence herbicidal rating GALAP ([8]; rate 0.1250 kg/ha): 2.0
- Preemergence herbicidal rating GALAP ([8]; rate 0.2500 kg/ha): 3.0
- Preemergence herbicidal rating CHEAL ([9]; rate 0.0156 kg/ha): 2.0
- Preemergence herbicidal rating CHEAL ([9]; rate 0.0313 kg/ha): 9.0
- Preemergence herbicidal rating CHEAL ([9]; rate 0.0625 kg/ha): 9.0
- Preemergence herbicidal rating CHEAL ([9]; rate 0.1250 kg/ha): 9.0
- Preemergence herbicidal rating CHEAL ([9]; rate 0.2500 kg/ha): 9.0
- Herbicidal rating ECHCG ([10]; rate 0.0156 kg/ha): 2.0
- Herbicidal rating ECHCG ([10]; rate 0.0313 kg/ha): 3.0
- Herbicidal rating ECHCG ([10]; rate 0.0625 kg/ha): 3.0
- Preemergence herbicidal rating CASOB ([11]; rate 0.0156 kg/ha): 0.0
- Preemergence herbicidal rating CASOB ([11]; rate 0.0313 kg/ha): 0.0
- Preemergence herbicidal rating CASOB ([11]; rate 0.0625 kg/ha): 0.0
- Preemergence herbicidal rating CASOB ([11]; rate 0.1250 kg/ha): 0.0
- Preemergence herbicidal rating CASOB ([11]; rate 0.2500 kg/ha): 0.0
- Herbicidal rating ABUTH ([12]; rate 0.0156 kg/ha): 9.0
- Herbicidal rating ABUTH ([12]; rate 0.0313 kg/ha): 9.0
- Herbicidal rating ABUTH ([12]; rate 0.0625 kg/ha): 9.0
